In the NIST ThermoML archive (doi:10.1021/je900387e):
Numbers after ± are expanded uncertainties.

Assay: xn = mol fraction of the nth substance listed
Conditions: Liquid, Pycnometric method

CCCCCl [1-chlorobutane] + O=C=O
Conditions | mass density [kg/m3]
313.1 K, 10970 kPa, x1 = 0.0744 | 828 ± 4
313.1 K, 11030 kPa, x1 = 0.0243 | 763 ± 4
313.1 K, 11220 kPa, x1 = 0.0483 | 800 ± 4
313.1 K, 11230 kPa, x1 = 0.0981 | 855 ± 4
313.1 K, 11350 kPa, x1 = 0.0744 | 833 ± 4
313.1 K, 11500 kPa, x1 = 0.1488 | 870 ± 4
313.1 K, 11510 kPa, x1 = 0.0483 | 806 ± 4
313.1 K, 11780 kPa, x1 = 0.0744 | 839 ± 4
313.1 K, 11810 kPa, x1 = 0.0483 | 811 ± 4
313.1 K, 11820 kPa, x1 = 0.0981 | 862 ± 4
313.1 K, 12110 kPa, x1 = 0.0483 | 816 ± 4
313.1 K, 12170 kPa, x1 = 0.1488 | 875 ± 4
313.1 K, 12220 kPa, x1 = 0.0744 | 844 ± 4
313.1 K, 12430 kPa, x1 = 0.0744 | 847 ± 4
313.1 K, 12440 kPa, x1 = 0.0981 | 869 ± 4
313.1 K, 12540 kPa, x1 = 0.1488 | 878 ± 4
313.1 K, 12780 kPa, x1 = 0.0981 | 872 ± 4
313.1 K, 12890 kPa, x1 = 0.1488 | 880 ± 4
313.1 K, 13000 kPa, x1 = 0.0981 | 874 ± 4
313.1 K, 13240 kPa, x1 = 0.1488 | 883 ± 4
313.1 K, 13660 kPa, x1 = 0.1488 | 885 ± 4
313.1 K, 14020 kPa, x1 = 0.1488 | 888 ± 4
313.1 K, 14460 kPa, x1 = 0.1488 | 890 ± 4
313.1 K, 14830 kPa, x1 = 0.1488 | 893 ± 4
314.5 K, 8320 kPa, x1 = 0.0243 | 495 ± 4
314.5 K, 8330 kPa, x1 = 0.0243 | 501 ± 4
314.5 K, 8360 kPa, x1 = 0.0243 | 510 ± 4
314.5 K, 8390 kPa, x1 = 0.0243 | 522 ± 4
314.5 K, 8430 kPa, x1 = 0.0243 | 531 ± 4
314.5 K, 8460 kPa, x1 = 0.0243 | 541 ± 4
314.5 K, 8490 kPa, x1 = 0.0243 | 552 ± 4
314.5 K, 8530 kPa, x1 = 0.0243 | 562 ± 4
314.5 K, 8590 kPa, x1 = 0.0243 | 575 ± 4
314.5 K, 8650 kPa, x1 = 0.0243 | 588 ± 4
314.5 K, 8720 kPa, x1 = 0.0243 | 602 ± 4
314.5 K, 8820 kPa, x1 = 0.0243 | 617 ± 4
314.5 K, 8930 kPa, x1 = 0.0243 | 632 ± 4
314.5 K, 9080 kPa, x1 = 0.0243 | 648 ± 4
314.5 K, 9270 kPa, x1 = 0.0243 | 664 ± 4
314.5 K, 9480 kPa, x1 = 0.0243 | 680 ± 4
314.5 K, 9790 kPa, x1 = 0.0243 | 698 ± 4
314.5 K, 10150 kPa, x1 = 0.0243 | 715 ± 4
314.5 K, 10480 kPa, x1 = 0.0243 | 729 ± 4
314.5 K, 10730 kPa, x1 = 0.0243 | 738 ± 4
314.5 K, 11030 kPa, x1 = 0.0243 | 748 ± 4
314.5 K, 11370 kPa, x1 = 0.0243 | 758 ± 4
314.5 K, 11740 kPa, x1 = 0.0243 | 767 ± 4
317.9 K, 7340 kPa, x1 = 0.1488 | 805 ± 4
317.9 K, 7730 kPa, x1 = 0.0981 | 761 ± 4
317.9 K, 7740 kPa, x1 = 0.1488 | 811 ± 4
317.9 K, 7900 kPa, x1 = 0.0981 | 766 ± 4
317.9 K, 8050 kPa, x1 = 0.0744 | 713 ± 4
317.9 K, 8060 kPa, x1 = 0.1488 | 815 ± 4
317.9 K, 8090 kPa, x1 = 0.0981 | 771 ± 4
317.9 K, 8230 kPa, x1 = 0.0744 | 720 ± 4
317.9 K, 8310 kPa, x1 = 0.0981 | 777 ± 4
317.9 K, 8360 kPa, x1 = 0.0744 | 727 ± 4
317.9 K, 8450 kPa, x1 = 0.1488 | 820 ± 4
317.9 K, 8520 kPa, x1 = 0.0744 | 733 ± 4
317.9 K, 8530 kPa, x1 = 0.0483 | 630 ± 4
317.9 K, 8530 kPa, x1 = 0.0981 | 782 ± 4
317.9 K, 8560 kPa, x1 = 0.0243 | 417 ± 4
317.9 K, 8590 kPa, x1 = 0.0243 | 423 ± 4
317.9 K, 8590 kPa, x1 = 0.0483 | 636 ± 4
317.9 K, 8630 kPa, x1 = 0.0243 | 433 ± 4
317.9 K, 8670 kPa, x1 = 0.0243 | 443 ± 4
317.9 K, 8690 kPa, x1 = 0.0483 | 646 ± 4
317.9 K, 8690 kPa, x1 = 0.0744 | 740 ± 4
317.9 K, 8720 kPa, x1 = 0.0243 | 453 ± 4
317.9 K, 8750 kPa, x1 = 0.0243 | 464 ± 4
317.9 K, 8770 kPa, x1 = 0.0981 | 787 ± 4
317.9 K, 8790 kPa, x1 = 0.0243 | 473 ± 4
317.9 K, 8810 kPa, x1 = 0.0483 | 656 ± 4
317.9 K, 8830 kPa, x1 = 0.1488 | 823 ± 4
317.9 K, 8850 kPa, x1 = 0.0243 | 484 ± 4
317.9 K, 8880 kPa, x1 = 0.0744 | 746 ± 4
317.9 K, 8890 kPa, x1 = 0.0243 | 496 ± 4
317.9 K, 8940 kPa, x1 = 0.0243 | 507 ± 4
317.9 K, 8940 kPa, x1 = 0.0483 | 667 ± 4
317.9 K, 8990 kPa, x1 = 0.0243 | 520 ± 4
317.9 K, 9050 kPa, x1 = 0.0981 | 793 ± 4
317.9 K, 9060 kPa, x1 = 0.0243 | 534 ± 4
317.9 K, 9080 kPa, x1 = 0.0483 | 678 ± 4
317.9 K, 9110 kPa, x1 = 0.0744 | 753 ± 4
